According to patent US12448352B2, “Beta adrenergic agonist and methods of using the same” (Curasen Therapeutics, Inc., priority 2019, dated 2025):

Legend:
[1] = Microsomal stability (rat); format: in vitro ADME; settings: rat liver microsomes 0.5 mg/mL; read-out: Microsomal stability (in vitro CLint), Rat
Description: (§1) The master solution was prepared as follows.
(§2) Two separate experiments were performed as follows:
(§3) With NADPH: 10 μL of 20 mg/mL liver microsomes and 40 μL of 10 mM NADPH were added to the incubations. The final concentrations of microsomes and NADPH were 0.5 mg/mL and 1 mM, respectively.
(§4) Without NADPH: 10 μL of 20 mg/mL liver microsomes and 40 μL of ultra-pure H2O were added to the incubations. The final concentration of microsomes was 0.5 mg/mL.
(§5) The reaction was started with the addition of 4 μL of 3, 10, 30 and 100 μM test compound solution or control compound solution at the final concentration of 0.03, 0.1, 0.3 and 1 μM and carried out at 37° C.
(§6) Aliquots of 50 μL were taken from the reaction solution at 0, 15, 30, 45 and 60 min. The reaction was stopped by the addition of 4 volumes of cold acetonitrile with IS (100 nM alprazolam, 200 nM labetalol, 200 nM caffeine and 2 μM ketoprofen). Samples were centrifuged at 3, 220 g for 40 minutes. Aliquot of 100 μL of the supernatant was mixed with 100 μL of ultra-pure H2O and then used for LC-MS/MS analysis. […]
(§7) Peak areas were determined from extracted ion chromatograms. The slope value, k, was determined by linear regression of the natural logarithm of the remaining percentage of the parent drug vs. incubation time curve.
(§8) The in vitro half-life (in vitro t1/2) was determined from the slope value: […]

[2] = Microsomal stability (human); format: in vitro ADME; settings: human liver microsomes 0.5 mg/mL; read-out: Microsomal stability (in vitro CLint), Human
Description: as §1, §2, §3, §4, §5, §6, §7, §8

[3] = Microsomal stability (dog); format: in vitro ADME; settings: dog liver microsomes 0.5 mg/mL; read-out: Microsomal stability (in vitro CLint), Dog
Description: as §1, §2, §3, §4, §5, §6, §7, §8

[4] = Rat pharmacokinetic study (plasma); format: in vivo, male SD rats; settings: IV 1 mg/kg
Description: The rat pharmacokinetics studies of exemplary compounds 03-3, 03-5, and 03-115 were conducted with male SD rats. These rats were typically about 6-8 weeks old, weighing 200 g to 300 g. Animals were fasted overnight and free access to food 4 hours after dosing. A required volume of vehicle was added to reach the target concentration of the test article and vehicle component to prepare for the dosing. The dosing vehicle was PEG400 or 30% PEG400 in saline for IV, or 0.5% methylcellulose in water for PO. For IV dosing, the animals were administered intravenously via tail vein. For PO dosing, the animals were administered via oral gavage. After dosing, blood sample was collected (˜0.2 mL per time point) through jugular vein or heart puncture. Blood of each sample was transferred into plastic micro centrifuge tubes containing EDTA-K2. Collection tubes with blood samples and anticoagulant were inverted several times for proper mixing of the tube contents and then placed on wet ice. The blood samples were centrifuged at 2000 g for 5 minutes at 4° C. to obtain plasma which was stored in a freezer at −75±15° C. prior to analysis. Samples were analyzed using LC-MS/MS. WinNonlin were used for pharmacokinetic calculations.

β1 adrenergic receptor = molecular target: T1, β1 adrenergic receptor (Homo sapiens, UniProt P08588); test: cAMP Gs dynamic HTRF assay, β1 expressing CHO cells; format: cell-based
T1 construct: expressed in transfected cells
T1 sequence (P08588 whole entry): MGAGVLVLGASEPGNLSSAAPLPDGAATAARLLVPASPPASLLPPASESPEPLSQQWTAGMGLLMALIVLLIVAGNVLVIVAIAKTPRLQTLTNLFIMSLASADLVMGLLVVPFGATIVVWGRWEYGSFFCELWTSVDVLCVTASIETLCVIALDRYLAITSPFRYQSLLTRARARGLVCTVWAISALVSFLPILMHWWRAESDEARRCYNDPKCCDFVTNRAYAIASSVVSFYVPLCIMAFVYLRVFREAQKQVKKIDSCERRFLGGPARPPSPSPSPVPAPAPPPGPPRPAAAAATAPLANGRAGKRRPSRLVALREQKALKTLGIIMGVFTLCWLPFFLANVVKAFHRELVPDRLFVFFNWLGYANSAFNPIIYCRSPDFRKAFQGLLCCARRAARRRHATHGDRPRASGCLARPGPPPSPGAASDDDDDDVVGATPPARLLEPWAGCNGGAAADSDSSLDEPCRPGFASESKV
Description: (§9) cAMP homogeneous time-resolved fluorescence (HTRF). Compound efficacy was determined using the cAMP Gs dynamic HTRF assay (Cisbio, catalog #62AM4PEC) largely following the manufacturer's instructions, also detailed below.
(§10) Compound preparation. […] Standard serial dilution curves were 10-point, 5-fold dilutions starting from a highest concentration of 10 μM. […] Assay plates were centrifuged at 500×g for 10 seconds. Compounds and IBMX were prepared at 2× final dose to compensate for addition of cells.
(§11) Cell preparation. […] Cells were harvested using assay PBS, counted manually by hemocytometer or by an automated cell counter, pelleted by centrifugation (200×g, 5 minutes) and resuspended in 37° C. […]
(§12) HTRF reagent addition, reading and data analysis. […] Plates were centrifuged again at 500×g for 10 seconds, and HTRF was measured using a Tecan Spark plate reader at 50 flashes per well. […] Potency estimates (EC50) were derived from the four-parameter nonlinear regression of the concentration-effect curve and an estimate of relative efficacy was determined by comparing the magnitude of the test compound HTRF signal window (min-max dose) with the signal window of the full agonist control, isoproterenol.

β2 adrenergic receptor = molecular target: T2, β2 adrenergic receptor (Homo sapiens, UniProt P07550); test: cAMP Gs dynamic HTRF assay, β2 expressing CHO cells; format: cell-based
T2 construct: expressed in transfected cells
T2 sequence (P07550 whole entry): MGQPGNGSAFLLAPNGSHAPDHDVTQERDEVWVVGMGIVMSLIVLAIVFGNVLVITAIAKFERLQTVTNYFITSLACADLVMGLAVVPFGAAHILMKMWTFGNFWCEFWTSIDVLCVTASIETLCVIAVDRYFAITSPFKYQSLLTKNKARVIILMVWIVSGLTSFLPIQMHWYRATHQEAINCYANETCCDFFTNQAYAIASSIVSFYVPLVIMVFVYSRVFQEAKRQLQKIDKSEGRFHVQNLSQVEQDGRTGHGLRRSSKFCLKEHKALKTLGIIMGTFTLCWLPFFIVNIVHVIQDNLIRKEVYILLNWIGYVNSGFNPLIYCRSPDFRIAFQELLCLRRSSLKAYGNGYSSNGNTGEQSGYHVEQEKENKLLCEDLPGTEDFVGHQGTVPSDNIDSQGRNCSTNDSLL
Description: as §9, §10, §11, §12

SMILES | microsomal CLint [1] | microsomal CLint [2] | microsomal CLint [3] | AUClast [4] | Vss_obs [4] | EC50 (β1 adrenergic receptor) | EC50 (β2 adrenergic receptor)
CC(C)(C)NC[C@H](O)c1cccc(C(F)(F)F)n1 [Compound 03-3] | 3.48 µL/min/mg | 3.49 µL/min/mg | 7.99 µL/min/mg | 546 ng·h/mL | 2.92 L/kg | – | –
CC(C)(C)NC[C@H](O)c1cccc(C#N)n1 [Compound 03-5, (S)-6-(2-(tert-butylamino)-1-hydroxyethyl)picolinonitrile] | 2.53 µL/min/mg | 2.96 µL/min/mg | 4.32 µL/min/mg | – | 1.89 L/kg | – | –
COc1ccc(C[C@@H](C)NC[C@H](O)c2ccc(C3CC3)nc2C)cc1 [Compound 03-269] | – | – | – | – | – | 10 to 100 nM | < 10 nM
